Measurements reported in patent US10745400B2, “Inhibition of BMP signaling, compounds, compositions and uses thereof” (Vanderbilt University, priority 2018, dated 2020).
Where a chain is given by its changes, count along the chain named. Like-named read-outs stand apart in the source and are kept apart here.

Legend:
ALK2/ACVR1 = target: T1, ALK2/ACVR1 (Homo sapiens, UniProt Q04771); assay: Kinase assay (33P-ATP filter-binding), ALK2; type: biochemical
T1 sequence (Q04771 21-509): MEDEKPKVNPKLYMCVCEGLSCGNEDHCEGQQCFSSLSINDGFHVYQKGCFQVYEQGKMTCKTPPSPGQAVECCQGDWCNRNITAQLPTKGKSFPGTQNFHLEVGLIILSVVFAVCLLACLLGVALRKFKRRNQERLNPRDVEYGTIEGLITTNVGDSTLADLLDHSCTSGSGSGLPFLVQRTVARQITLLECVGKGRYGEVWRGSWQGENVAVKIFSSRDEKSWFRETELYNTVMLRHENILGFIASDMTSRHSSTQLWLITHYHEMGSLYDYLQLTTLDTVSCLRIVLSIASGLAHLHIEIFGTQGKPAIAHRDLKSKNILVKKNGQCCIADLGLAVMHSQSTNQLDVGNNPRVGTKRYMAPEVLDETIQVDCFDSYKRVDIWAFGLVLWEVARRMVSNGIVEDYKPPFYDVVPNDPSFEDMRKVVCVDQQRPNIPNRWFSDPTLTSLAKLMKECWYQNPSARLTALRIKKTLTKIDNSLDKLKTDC
Protocol: (§1) The kinase assays were carried out briefly as follows. Substrate was prepared in Base Reaction Buffer (20 mM Hepes (pH 7.5), 10 mM MgCl2, 1 mM EGTA, 0.02% Brij35, 0.02 mg/ml BSA, 0.1 mM Na3VO4, 2 mM DTT, 1% DMSO). The indicated kinases was delivered into the substrate solution and allowed to gently mix. Next, the specific compound was delivered in DMSO into the kinase mixture by Acoustic technology (Echo550; nanoliter range), and allowed to incubate for 20 minutes at room temperature. Next, ^33P-ATP was delivered into the reaction mixture to initiate the reaction and allowed to incubate at room temperature. After 2 hours, the reactions were spotted onto P81 ion exchange paper and the kinase activity is detected by the filter-binding method.

ALK2 (Q207D) = target: T2, ALK2 (Q207D) (Homo sapiens, UniProt Q04771, Q207D); assay: Kinase assay (33P-ATP filter-binding), ALK2 Q207D; type: biochemical; settings: Q207D mutant, 20 mM; read-out: Kinase Selectivity ALK2 (Q207D, 20 mM)
T2 sequence (Q04771 21-509 Q207D): T1 sequence (Q04771 21-509) with Q187D
Protocol: as §1

ALK1/ACVRL1 = ALK1/ACVRL1 (Homo sapiens, UniProt P37023); assay: Kinase assay (33P-ATP filter-binding), ALK1; type: biochemical
Protocol: as §1

ALK2 (R206H) = target: T3, ALK2 (R206H) (Homo sapiens, UniProt Q04771, R206H); assay: Kinase assay (33P-ATP filter-binding), ALK2 R206H; type: biochemical; settings: R206H mutant, 20 mM; read-out: Kinase Selectivity ALK2 (R206H, 20 mM)
T3 sequence (Q04771 21-509 R206H): T1 sequence (Q04771 21-509) with R186H
Protocol: as §1

ALK3/BMPR1A = ALK3/BMPR1A (Homo sapiens, UniProt P36894); assay: Kinase assay (33P-ATP filter-binding), ALK3; type: biochemical
Protocol: as §1

Protein binding, human = type: in vitro ADME
[1] = Intrinsic clearance, mouse; type: in vitro ADME; settings: mouse
Protein binding, mouse = type: in vitro ADME
[2] = Intrinsic clearance, human; type: in vitro ADME; settings: human
[3] = 20 mM, read-out: Kinase Selectivity ALK2/ACVR1 (20 mM)
[4] = read-out: Kinase Selectivity ALK1/ACVRL1
[5] = 1 mM, read-out: Kinase Selectivity ALK3/BMPR1A (1 mM)
[6] = CL-Hep, value in parentheses, read-out: Intrinsic Clearance Mouse (CL-Hep)
[7] = read-out: Intrinsic Clearance Mouse
[8] = CL-Hep, value in parentheses, read-out: Intrinsic Clearance Human (CL-Hep)
[9] = read-out: Intrinsic Clearance Human

Sequence of ALK3/BMPR1A (P36894 24-532): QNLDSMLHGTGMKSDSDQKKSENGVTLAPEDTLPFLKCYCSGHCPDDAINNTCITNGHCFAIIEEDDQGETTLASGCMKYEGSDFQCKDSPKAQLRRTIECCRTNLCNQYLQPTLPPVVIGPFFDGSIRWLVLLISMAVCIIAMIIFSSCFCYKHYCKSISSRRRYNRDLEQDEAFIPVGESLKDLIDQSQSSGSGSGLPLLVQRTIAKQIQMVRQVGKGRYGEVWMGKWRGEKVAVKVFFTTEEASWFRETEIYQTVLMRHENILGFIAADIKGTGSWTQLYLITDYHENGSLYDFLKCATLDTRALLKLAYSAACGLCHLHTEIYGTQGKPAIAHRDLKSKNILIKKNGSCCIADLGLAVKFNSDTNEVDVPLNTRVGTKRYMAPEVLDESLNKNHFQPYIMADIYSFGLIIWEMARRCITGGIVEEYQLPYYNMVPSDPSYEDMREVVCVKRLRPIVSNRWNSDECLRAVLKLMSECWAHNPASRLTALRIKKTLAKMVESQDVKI
Sequence of ALK1/ACVRL1 (P37023 22-503): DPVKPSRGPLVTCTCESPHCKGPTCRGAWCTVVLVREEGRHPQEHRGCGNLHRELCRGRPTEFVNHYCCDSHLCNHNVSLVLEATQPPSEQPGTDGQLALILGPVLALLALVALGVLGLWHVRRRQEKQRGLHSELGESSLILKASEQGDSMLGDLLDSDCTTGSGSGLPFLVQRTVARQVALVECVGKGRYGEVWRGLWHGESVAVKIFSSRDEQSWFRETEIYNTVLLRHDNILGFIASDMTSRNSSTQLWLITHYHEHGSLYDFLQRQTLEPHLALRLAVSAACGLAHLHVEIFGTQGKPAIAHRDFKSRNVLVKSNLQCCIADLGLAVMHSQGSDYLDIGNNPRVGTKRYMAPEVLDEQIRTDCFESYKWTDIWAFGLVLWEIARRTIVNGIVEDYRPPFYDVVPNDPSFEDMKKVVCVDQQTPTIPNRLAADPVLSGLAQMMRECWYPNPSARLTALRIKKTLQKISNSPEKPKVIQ

**Q.** With `Cc1cc(-c2cnc3cc(-c4ccc(N5CCNC(C)(C)C5)cc4)ccn23)c2cc(F)cc(F)c2n1` [Compound 26] as the molecule, how does the IC50 (ALK2/ACVR1; [3]) read?
**A.** The IC50 was 14.9 nM.

**Q.** What about the IC50 (ALK2 (Q207D)) of the same molecule?
**A.** The IC50 was 69.7 nM.

**Q.** What about the IC50 (ALK1/ACVRL1; [4]) of the same molecule?
**A.** Its IC50 is 330 nM.

**Q.** What about the IC50 (ALK2 (R206H)) of the same molecule?
**A.** Its IC50 is 79.3 nM.

**Q.** And the IC50 (ALK3/BMPR1A; [5])?
**A.** The IC50 was 5.7 nM.

**Q.** What about the “Protein Binding (% Free) Human” value (Protein binding, human) of the same molecule?
**A.** Its value is 0.61 % Free.

**Q.** What about the CLint scaled [1, 6] of the same molecule?
**A.** Its CLint scaled is 47.1 mL/min/kg.

**Q.** What about the CLint scaled [1, 7] of the same molecule?
**A.** Its CLint scaled is 99 mL/min/kg.

**Q.** What about the “Protein Binding (% Free) Mouse” value (Protein binding, mouse) of the same molecule?
**A.** Its value is 1.03 % Free.

**Q.** And the CLint scaled [2, 8]?
**A.** Its CLint scaled is under 10.7 mL/min/kg.

**Q.** And the CLint scaled [2, 9]?
**A.** Its CLint scaled is under 23.1 mL/min/kg.

**Q.** What does the source list for `Cc1cc(-c2cnc3cc(-c4ccc(N5CCC6(CCC6)CC5)cc4)ccn23)c2cc(F)cc(F)c2n1` [Compound 9]?
**A.** IC50 (ALK2/ACVR1; [3]): > 50000 nM; IC50 (ALK2 (Q207D)): > 50000 nM; IC50 (ALK1/ACVRL1; [4]): > 50000 nM; IC50 (ALK2 (R206H)): > 50000 nM; IC50 (ALK3/BMPR1A; [5]): 40900 nM

**Q.** With `Cc1cc(-c2cnc3cc(-c4ccc(N5CCC6(CCCNC6)CC5)cc4)ccn23)c2cc(F)cc(F)c2n1` [Compound 3] as the molecule, how does the IC50 (ALK2/ACVR1; [3]) read?
**A.** Its IC50 is 1090 nM.

**Q.** What about the IC50 (ALK2 (Q207D)) of the same molecule?
**A.** The IC50 was 999 nM.

**Q.** What about the IC50 (ALK1/ACVRL1; [4]) of the same molecule?
**A.** Its IC50 is 10300 nM.

**Q.** And the IC50 (ALK2 (R206H))?
**A.** The IC50 was 1120 nM.

**Q.** And the IC50 (ALK3/BMPR1A; [5])?
**A.** Its IC50 is 332 nM.

**Q.** What does the source list for `Cc1cc(-c2cnc3cc(-c4ccc(N5CCC6(CCCCN6)CC5)cc4)ccn23)c2cc(F)cc(F)c2n1` [Compound 25]?
**A.** IC50 (ALK2/ACVR1; [3]): 55.5 nM; IC50 (ALK2 (Q207D)): 170 nM; IC50 (ALK1/ACVRL1; [4]): 777 nM; IC50 (ALK2 (R206H)): 258 nM; IC50 (ALK3/BMPR1A; [5]): 54.7 nM; Protein Binding (% Free) Human (Protein binding, human): 1.43 % Free; CLint scaled [1, 6]: 97.8 mL/min/kg; CLint scaled [1, 7]: 198 mL/min/kg; Protein Binding (% Free) Mouse (Protein binding, mouse): 0.55 % Free; CLint scaled [2, 8]: 14 mL/min/kg; CLint scaled [2, 9]: 46.3 mL/min/kg

**Q.** With `Cc1cc(-c2cnc3cc(-c4ccc(N5CCNC6(CCC6)C5)cc4)ccn23)c2cc(F)cc(F)c2n1` [Compound 4] as the molecule, how does the IC50 (ALK2/ACVR1; [3]) read?
**A.** Its IC50 is 29 nM.

**Q.** And the IC50 (ALK2 (Q207D))?
**A.** Its IC50 is 24 nM.

**Q.** And the IC50 (ALK1/ACVRL1; [4])?
**A.** Its IC50 is 386 nM.

**Q.** And the IC50 (ALK2 (R206H))?
**A.** Its IC50 is 25.5 nM.

**Q.** And the IC50 (ALK3/BMPR1A; [5])?
**A.** The IC50 was 2.52 nM.

**Q.** For `Cc1cc(-c2cnc3cc(-c4ccc(C5C[C@@H](C)N[C@@H](C)C5)cc4)ccn23)c2cc(F)cc(F)c2n1` (stereo partly shown) [Compound 1], which IC50 (ALK2/ACVR1; [3]) is on record?
**A.** The IC50 was 54.2 nM.

**Q.** And the IC50 (ALK2 (Q207D))?
**A.** Its IC50 is 68.1 nM.

**Q.** What about the IC50 (ALK1/ACVRL1; [4]) of the same molecule?
**A.** Its IC50 is 880 nM.

**Q.** And the IC50 (ALK2 (R206H))?
**A.** Its IC50 is 60.9 nM.

**Q.** What about the IC50 (ALK3/BMPR1A; [5]) of the same molecule?
**A.** Its IC50 is 28.5 nM.

**Q.** Which IC50 (ALK2/ACVR1; [3]) does the source give for `Cc1cc(-c2cnc3cc(-c4ccc(N5CCC6(CCNCC6)C5)cc4)ccn23)c2cc(F)cc(F)c2n1` [Compound 5] here?
**A.** The IC50 was 2370 nM.

**Q.** And the IC50 (ALK2 (Q207D))?
**A.** The IC50 was 1740 nM.

**Q.** What about the IC50 (ALK1/ACVRL1; [4]) of the same molecule?
**A.** The IC50 was 35300 nM.

**Q.** And the IC50 (ALK2 (R206H))?
**A.** The IC50 was 2510 nM.

**Q.** What about the IC50 (ALK3/BMPR1A; [5]) of the same molecule?
**A.** Its IC50 is 1330 nM.

**Q.** What does the source list for `Cc1cc(-c2cnc3cc(-c4ccc(N5CCC6(CCCNC6)C5)cc4)ccn23)c2cc(F)cc(F)c2n1` (stereo not shown) [Compound 6]?
**A.** IC50 (ALK2/ACVR1; [3]): 171 nM; IC50 (ALK2 (Q207D)): 200 nM; IC50 (ALK1/ACVRL1; [4]): 3460 nM; IC50 (ALK2 (R206H)): 218 nM; IC50 (ALK3/BMPR1A; [5]): 19.9 nM

**Q.** With `O=S(=O)(F)Oc1ccc(-c2cnc3cc(-c4ccc(N5CCOCC5)cc4)ccn23)c2ccccc12` [Compound 38] as the molecule, how does the IC50 (ALK2/ACVR1) read?
**A.** Its IC50 is over 30000 nM.

**Q.** And the IC50 (ALK2 (Q207D))?
**A.** Its IC50 is 10300 nM.

**Q.** And the IC50 (ALK1/ACVRL1; Kinase Selectivity ALK1/ACVRL1)?
**A.** The IC50 was over 30000 nM.

**Q.** And the IC50 (ALK2 (R206H))?
**A.** Its IC50 is 15000 nM.

**Q.** And the IC50 (ALK3/BMPR1A)?
**A.** The IC50 was 23100 nM.

**Q.** What does the source list for `Cc1cc(-c2cnc3cc(-c4ccc(C5COCCN5)cc4)ccn23)c2cc(F)ccc2n1` (stereo not shown) [Compound 11]?
**A.** IC50 (ALK1/ACVRL1; [4]): 23.5 nM; IC50 (ALK3/BMPR1A; [5]): < 5.1 nM; Protein Binding (% Free) Human (Protein binding, human): 1.52 % Free; Protein Binding (% Free) Mouse (Protein binding, mouse): 3.23 % Free; CLint scaled [2, 8]: 17.4 mL/min/kg

**Q.** With `Cc1cc(-c2cnc3cc(-c4ccc(N5CCC6(CCNC6)CC5)cc4)ccn23)c2cc(F)cc(F)c2n1` [Compound 7] as the molecule, how does the IC50 (ALK2/ACVR1; [3]) read?
**A.** Its IC50 is 770 nM.

**Q.** What about the IC50 (ALK2 (Q207D)) of the same molecule?
**A.** The IC50 was 745 nM.

**Q.** And the IC50 (ALK1/ACVRL1; [4])?
**A.** Its IC50 is 5950 nM.

**Q.** What about the IC50 (ALK2 (R206H)) of the same molecule?
**A.** The IC50 was 1070 nM.

**Q.** And the IC50 (ALK3/BMPR1A; [5])?
**A.** Its IC50 is 434 nM.
